How the values were obtained:
Assay in all cases: relative viability (nuclei count vs DMSO), 5 days (fraction); higher = more cells survive
[1] = compound: C1CC(C1)(C(=O)O)C(=O)O.[NH2-].[NH2-].[Pt+2] [Carboplatin] + Cc1nc(Nc2ncc(C(=O)Nc3c(C)cccc3Cl)s2)cc(N2CCN(CCO)CC2)n1 [Dasatinib] (partner 0.075 µM)
Outline: (§1)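 Five library-drug doses in √10 steps were combined with a fixed anchor-drug dose, or a single drug was given alone, by pin tool to lung cancer cell lines in 1536-well plates the day after seeding. Nuclei were stained and counted after 5 days. Relative viability is the nuclei count in treated wells over that in vehicle wells, taken as the median of duplicate plates.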

[2] = compound: CC[C@H](C)N1C=C(C2=C(C=C(C=C21)C3=CN=C(C=C3)N4CCNCC4)C(=O)NCC5=C(C=C(NC5=O)C)C)C [GSK126] + CC(=O)c1c(C)c2cnc(Nc3ccc(N4CCNCC4)cn3)nc2n(C2CCCC2)c1=O [Palbociclib] (partner 0.5 µM)
Outline: as §1

[3] = compound: CC[C@H](C)N1C=C(C2=C(C=C(C=C21)C3=CN=C(C=C3)N4CCNCC4)C(=O)NCC5=C(C=C(NC5=O)C)C)C [GSK126] + CC1(C)CCC(c2ccc(Cl)cc2)=C(CN2CCN(c3ccc(C(=O)NS(=O)(=O)c4ccc(N[C@H](CCN5CCOCC5)CSc5ccccc5)c(S(=O)(=O)C(F)(F)F)c4)cc3)CC2)C1 [Navitoclax] (partner 0.5 µM)
Outline: as §1

[4] = compound: CC[C@H](C)N1C=C(C2=C(C=C(C=C21)C3=CN=C(C=C3)N4CCNCC4)C(=O)NCC5=C(C=C(NC5=O)C)C)C [GSK126] + Nc1nc2[nH]cc(CCc3ccc(C(=O)N[C@@H](CCC(=O)O)C(=O)O)cc3)c2c(=O)[nH]1 [Pemetrexed] (partner 0.2 µM)
Outline: as §1

Row | Cell Line | relative viability ([1]; first compound 0.08 µM) | relative viability ([1]; first compound 0.253 µM) | relative viability ([1]; first compound 0.8 µM) | relative viability ([1]; first compound 2.53 µM) | relative viability ([1]; first compound 8 µM) | relative viability ([2]; first compound 0.08 µM) | relative viability ([2]; first compound 0.253 µM) | relative viability ([2]; first compound 0.8 µM) | relative viability ([2]; first compound 2.53 µM) | relative viability ([2]; first compound 8 µM) | relative viability ([3]; first compound 0.08 µM) | relative viability ([3]; first compound 0.253 µM) | relative viability ([3]; first compound 0.8 µM) | relative viability ([3]; first compound 2.53 µM) | relative viability ([3]; first compound 8 µM) | relative viability ([4]; first compound 0.08 µM) | relative viability ([4]; first compound 0.253 µM) | relative viability ([4]; first compound 0.8 µM) | relative viability ([4]; first compound 2.53 µM) | relative viability ([4]; first compound 8 µM)
1 | HCC-78 | 0.576 | 0.425 | 0.372 | 0.416 | 0.489 | 0.473 | 0.38 | 0.497 | 0.461 | 0.492 | 1.01 | 0.711 | 0.832 | 0.741 | 0.804 | 0.889 | 0.866 | 0.888 | 0.891 | 0.871
2 | HCC-366 | 0.609 | 0.619 | 0.624 | 0.594 | 0.403 | 0.391 | 0.399 | 0.425 | 0.407 | 0.374 | 1.17 | 1.02 | 1.09 | 1.12 | 1.05 | 0.179 | 0.161 | 0.14 | 0.149 | 0.158
3 | HCC-827 | 0.327 | 0.326 | 0.337 | 0.35 | 0.432 | 0.492 | 0.54 | 0.486 | 0.483 | 0.469 | 1.07 | 1.03 | 0.987 | 0.967 | 0.95 | 0.264 | 0.285 | 0.249 | 0.27 | 0.287
4 | HOP-62 | 0.711 | 0.711 | 0.645 | 0.728 | 0.575 | 0.501 | 0.372 | 0.468 | 0.398 | 0.444 | 1.01 | 1.06 | 1.06 | 0.916 | 0.979 | 0.335 | 0.355 | 0.284 | 0.289 | 0.419
5 | IA-LM | – | – | – | – | – | – | – | – | – | – | 0.702 | 0.691 | 0.758 | 0.761 | 0.947 | – | – | – | – | –
6 | LC-2-ad | 0.701 | 0.567 | 0.414 | 0.416 | 0.277 | 0.497 | 0.489 | 0.479 | 0.481 | 0.478 | 0.468 | 0.383 | 0.506 | 0.477 | 0.484 | 0.257 | 0.265 | 0.278 | 0.281 | 0.253
7 | LCLC-97TM1 | 0.848 | 0.921 | 0.844 | 0.808 | 0.647 | 0.283 | 0.265 | 0.232 | 0.308 | 0.255 | 0.587 | – | 0.379 | 0.525 | 0.798 | 0.19 | 0.193 | 0.171 | 0.179 | 0.194
8 | LCLC-103H | 0.481 | 0.55 | 0.524 | 0.482 | 0.445 | 0.452 | 0.546 | 0.466 | 0.441 | 0.5 | – | – | – | – | – | 0.397 | 0.499 | 0.431 | 0.469 | 0.538
9 | LK-2 | 0.275 | 0.252 | 0.295 | 0.197 | 0.379 | 0.682 | 0.657 | 0.738 | 0.558 | 0.681 | 0.957 | 0.772 | 0.819 | 0.789 | 0.756 | 0.306 | 0.297 | 0.293 | 0.325 | 0.223

Source: the supplement of paper PMC10307832
